Reference: US20260008768A1, “UREA DERIVATIVES FOR INHIBITING NLRP3 AND USES THEREOF” (VENTUS THERAPEUTICS U.S., INC., priority 2023, published 2026)
Values belong to the compound of their own block, whether it stands above or below them.

Biological target: human NLRP3 (Homo sapiens, UniProt Q96P20)
Assay: Scintillation Proximity (SPA) NLRP3 Assay, displacement of 3H-MCC950
Assay type: binding
Conditions: Table B, activity class; displacement of 3H-MCC950 from human NLRP3
Protocol: Improved NLRP3 binding correlates with increased affinity for NLRP3 protein and, by extension, increased ability to interfere with its function.
SPA experiments were conducted in a total volume of 20 μL assay buffer containing 20 mM HEPES pH 7.5, 150 mM NaCl, 5 mM MgCl2, 0.01% (v/v) Tween-20, 0.01% (w/v) bovine serum albumin (BSA) and 100 μM of adenosine diphosphate (ADP). A human NLRP3 protein (350 nM) (see, e.g., Sharif et al., Nature (2019) 570:338-343; Hochheiser et al., Nature (2022) 604:184-189; Adreeva et al., Cell (2021) 184:6299-6312; Wang et al., J Exp. Med. (2021) 219:e20211147) was incubated with various concentration of compounds in 5% dimethyl sulfoxide (DMSO) final for 15 minutes at room temperature in a white half-area 96 well OptiPlate (PerkinElmer #6002290) before adding 125 nM final of 3H-MCC950. After the addition of radiolabeled MCC950, the plate was incubated for 60 minutes at room temperature before adding 0.25 mg/ml of copper-coated polyvinyltoluene SPA beads (PerkinElmer #RPNQ0095). The plate was then transferred to a microplate counter (PerkinElmer 2450 Microbeta) to collect binding data. Binding data was analyzed 6 hrs post-PVT bead addition to allow sufficient time to reach equilibrium. Specific binding was calculated from averaged duplicates by subtracting signal from wells without NLRP3 protein.
SPA NLRP3 IC50 assay results are provided in Table B. “A” activity=<1 uM; “B” activity=1-10 uM; “C” activity=>10-50 uM; “D” activity=>50 uM-100 uM; and “E” activity=>100 uM.

human NLRP3, sequence (Q96P20 whole entry): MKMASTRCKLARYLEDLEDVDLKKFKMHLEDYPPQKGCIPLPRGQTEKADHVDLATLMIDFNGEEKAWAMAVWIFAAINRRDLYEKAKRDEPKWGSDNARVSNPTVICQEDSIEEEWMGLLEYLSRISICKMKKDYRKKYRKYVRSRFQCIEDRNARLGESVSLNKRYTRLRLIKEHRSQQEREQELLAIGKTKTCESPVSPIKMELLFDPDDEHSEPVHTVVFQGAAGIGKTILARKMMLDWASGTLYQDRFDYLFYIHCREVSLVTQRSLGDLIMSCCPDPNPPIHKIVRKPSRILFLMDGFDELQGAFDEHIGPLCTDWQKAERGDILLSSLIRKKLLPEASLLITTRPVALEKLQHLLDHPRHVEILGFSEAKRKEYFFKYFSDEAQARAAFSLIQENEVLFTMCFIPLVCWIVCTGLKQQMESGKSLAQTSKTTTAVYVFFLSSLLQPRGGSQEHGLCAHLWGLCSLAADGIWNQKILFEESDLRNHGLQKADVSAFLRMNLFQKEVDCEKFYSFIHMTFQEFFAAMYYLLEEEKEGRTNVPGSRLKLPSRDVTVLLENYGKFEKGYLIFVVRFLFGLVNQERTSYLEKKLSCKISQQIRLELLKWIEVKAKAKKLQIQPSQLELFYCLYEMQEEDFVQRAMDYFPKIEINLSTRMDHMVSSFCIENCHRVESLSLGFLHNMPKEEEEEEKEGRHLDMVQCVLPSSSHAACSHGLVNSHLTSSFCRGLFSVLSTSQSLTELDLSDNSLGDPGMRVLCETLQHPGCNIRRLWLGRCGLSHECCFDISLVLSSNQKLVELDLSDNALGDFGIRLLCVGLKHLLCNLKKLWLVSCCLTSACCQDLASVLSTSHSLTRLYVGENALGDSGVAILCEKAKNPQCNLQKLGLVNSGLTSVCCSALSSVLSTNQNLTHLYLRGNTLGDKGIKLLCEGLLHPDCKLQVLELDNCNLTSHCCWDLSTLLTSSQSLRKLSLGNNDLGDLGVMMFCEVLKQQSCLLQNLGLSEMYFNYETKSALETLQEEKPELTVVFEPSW

Structure (SMILES): C[C@@H]1C[C@H](NC(=O)N(C)c2ccc(OC(F)F)cc2)[C@H]2CC[C@@H]1N2c1nnn[nH]1 (single isomer, unassigned) [42B*]
- IC50: 10 to 50 µM

Structure (SMILES): C[C@H]1C[C@@H](NC(=O)N(C)c2ccc(OC(F)F)cc2)[C@@H]2CC[C@H]1N2c1nnn[nH]1 (single isomer, unassigned) [42C*]
- IC50: > 100 µM

Structure (SMILES): C[C@H]1C[C@H](NC(=O)N(C)c2ccc(OC(F)F)cc2)[C@@H]2CC[C@H]1N2c1nnn[nH]1 (single isomer, unassigned) [42D*]
- IC50: 10 to 50 µM

- IC50: < 1 µM
Structure (SMILES): CCN(C(=O)N[C@H]1C[C@H](C)CCN(c2nnn[nH]2)C1)c1ccc(OC(F)(F)F)cc1 (single isomer, unassigned) [43B*]

- IC50: 10 to 50 µM
Structure (SMILES): CCN(C(=O)N[C@@H]1C[C@@H](C)CCN(c2nnn[nH]2)C1)c1ccc(OC(F)(F)F)cc1 (single isomer, unassigned) [43C*]

- IC50: 1 to 10 µM
Structure (SMILES): CCN(C(=O)N[C@H]1C[C@@H](C)CCN(c2nnn[nH]2)C1)c1ccc(OC(F)(F)F)cc1 (single isomer, unassigned) [43D*]

- IC50: 1 to 10 µM
Structure (SMILES): C[C@@H]1CCN(c2nnn[nH]2)C[C@@H](NC(=O)N(CC2CC2)c2ccc(OC(F)(F)F)cc2)C1 (single isomer, unassigned) [44B*]

- IC50: 10 to 50 µM
Structure (SMILES): C[C@H]1CCN(c2nnn[nH]2)C[C@H](NC(=O)N(CC2CC2)c2ccc(OC(F)(F)F)cc2)C1 (single isomer, unassigned) [44C*]

- IC50: 1 to 10 µM
Structure (SMILES): C[C@H]1CCN(c2nnn[nH]2)C[C@@H](NC(=O)N(CC2CC2)c2ccc(OC(F)(F)F)cc2)C1 (single isomer, unassigned) [44D*]

Structure (SMILES): C[C@@H]1C[C@H](NC(=O)N(C)c2ccc(OC(F)(F)F)cc2)[C@H]2CC[C@@H]1N2c1nnn[nH]1 (single isomer, unassigned) [45B*]
- IC50: 10 to 50 µM

Structure (SMILES): C[C@H]1C[C@@H](NC(=O)N(C)c2ccc(OC(F)(F)F)cc2)[C@@H]2CC[C@H]1N2c1nnn[nH]1 (single isomer, unassigned) [45C*]
- IC50: 50 to 100 µM

Structure (SMILES): C[C@H]1C[C@H](NC(=O)N(C)c2ccc(OC(F)(F)F)cc2)[C@@H]2CC[C@H]1N2c1nnn[nH]1 (single isomer, unassigned) [45D*]
- IC50: 1 to 10 µM

Structure (SMILES): C[C@@H]1C[C@H](NC(=O)N(C)c2ccc(C3CC3)cc2)[C@H]2CC[C@@H]1N2c1nnn[nH]1 (single isomer, unassigned) [46B*]
- IC50: 50 to 100 µM

Structure (SMILES): C[C@H]1C[C@@H](NC(=O)N(C)c2ccc(C3CC3)cc2)[C@@H]2CC[C@H]1N2c1nnn[nH]1 (single isomer, unassigned) [46C*]
- IC50: 10 to 50 µM

Structure (SMILES): C[C@H]1C[C@H](NC(=O)N(C)c2ccc(C3CC3)cc2)[C@@H]2CC[C@H]1N2c1nnn[nH]1 (single isomer, unassigned) [46D*]
- IC50: 10 to 50 µM

Structure (SMILES): C[C@@H]1C[C@H](NC(=O)N(C)c2ccc(C(F)(F)F)c(F)c2F)[C@H]2CC[C@@H]1N2c1nnn[nH]1 (single isomer, unassigned) [47B*]
- IC50: 50 to 100 µM

Structure (SMILES): C[C@H]1C[C@@H](NC(=O)N(C)c2ccc(C(F)(F)F)c(F)c2F)[C@@H]2CC[C@H]1N2c1nnn[nH]1 (single isomer, unassigned) [47C*]
- IC50: > 100 µM

Structure (SMILES): C[C@H]1C[C@H](NC(=O)N(C)c2ccc(C(F)(F)F)c(F)c2F)[C@@H]2CC[C@H]1N2c1nnn[nH]1 (single isomer, unassigned) [47D*]
- IC50: 10 to 50 µM

Structure (SMILES): C[C@@H]1C[C@H](NC(=O)N(C)c2ccc(C(F)(F)F)cc2F)[C@H]2CC[C@@H]1N2c1nnn[nH]1 (single isomer, unassigned) [48B*]
- IC50: > 100 µM

Structure (SMILES): C[C@H]1C[C@@H](NC(=O)N(C)c2ccc(C(F)(F)F)cc2F)[C@@H]2CC[C@H]1N2c1nnn[nH]1 (single isomer, unassigned) [48C*]
- IC50: 50 to 100 µM

Structure (SMILES): C[C@H]1C[C@H](NC(=O)N(C)c2ccc(C(F)(F)F)cc2F)[C@@H]2CC[C@H]1N2c1nnn[nH]1 (single isomer, unassigned) [48D*]
- IC50: 10 to 50 µM

Structure (SMILES): C[C@@H]1C[C@H](NC(=O)N(C)c2ccc(C(F)(F)F)c(F)c2)[C@H]2CC[C@@H]1N2c1nnn[nH]1 (single isomer, unassigned) [49B*]
- IC50: > 100 µM

Structure (SMILES): C[C@H]1C[C@@H](NC(=O)N(C)c2ccc(C(F)(F)F)c(F)c2)[C@@H]2CC[C@H]1N2c1nnn[nH]1 (single isomer, unassigned) [49C*]
- IC50: 50 to 100 µM

Structure (SMILES): C[C@H]1C[C@H](NC(=O)N(C)c2ccc(C(F)(F)F)c(F)c2)[C@@H]2CC[C@H]1N2c1nnn[nH]1 (single isomer, unassigned) [49D*]
- IC50: 50 to 100 µM

Structure (SMILES): C[C@@H]1C[C@@H](NC(=O)N(C)c2ccc(Cl)c(F)c2)[C@H]2CC[C@@H]1N2c1nnn[nH]1 (single isomer, unassigned) [50A*]
- IC50: 1 to 10 µM

Structure (SMILES): C[C@@H]1C[C@H](NC(=O)N(C)c2ccc(Cl)c(F)c2)[C@H]2CC[C@@H]1N2c1nnn[nH]1 (single isomer, unassigned) [50B*]
- IC50: > 100 µM

Structure (SMILES): C[C@H]1C[C@@H](NC(=O)N(C)c2ccc(Cl)c(F)c2)[C@@H]2CC[C@H]1N2c1nnn[nH]1 (single isomer, unassigned) [50C*]
- IC50: > 100 µM

Structure (SMILES): C[C@H]1C[C@H](NC(=O)N(C)c2ccc(Cl)c(F)c2)[C@@H]2CC[C@H]1N2c1nnn[nH]1 (single isomer, unassigned) [50D*]
- IC50: 10 to 50 µM

Structure (SMILES): C[C@@H]1C[C@H](NC(=O)N(C)c2ccc(OC(F)(F)F)c(F)c2)[C@H]2CC[C@@H]1N2c1nnn[nH]1 (single isomer, unassigned) [51B*]
- IC50: 50 to 100 µM

Structure (SMILES): C[C@H]1C[C@@H](NC(=O)N(C)c2ccc(OC(F)(F)F)c(F)c2)[C@@H]2CC[C@H]1N2c1nnn[nH]1 (single isomer, unassigned) [51C*]
- IC50: > 100 µM

Structure (SMILES): C[C@H]1C[C@H](NC(=O)N(C)c2ccc(OC(F)(F)F)c(F)c2)[C@@H]2CC[C@H]1N2c1nnn[nH]1 (single isomer, unassigned) [51D*]
- IC50: 10 to 50 µM

Structure (SMILES): C[C@@H]1C[C@H](NC(=O)N(C)c2ccc(OC(F)F)c(F)c2)[C@H]2CC[C@@H]1N2c1nnn[nH]1 (single isomer, unassigned) [52B*]
- IC50: > 100 µM

Structure (SMILES): C[C@H]1C[C@@H](NC(=O)N(C)c2ccc(OC(F)F)c(F)c2)[C@@H]2CC[C@H]1N2c1nnn[nH]1 (single isomer, unassigned) [52C*]
- IC50: > 100 µM

Structure (SMILES): C[C@H]1C[C@H](NC(=O)N(C)c2ccc(OC(F)F)c(F)c2)[C@@H]2CC[C@H]1N2c1nnn[nH]1 (single isomer, unassigned) [52D*]
- IC50: 10 to 50 µM

Structure (SMILES): C[C@@H]1C[C@@H](NC(=O)N(C)c2ccc(C(F)F)c(F)c2)[C@H]2CC[C@@H]1N2c1nnn[nH]1 (single isomer, unassigned) [53A*]
- IC50: 1 to 10 µM

Structure (SMILES): C[C@@H]1C[C@H](NC(=O)N(C)c2ccc(C(F)F)c(F)c2)[C@H]2CC[C@@H]1N2c1nnn[nH]1 (single isomer, unassigned) [53B*]
- IC50: > 100 µM

Structure (SMILES): C[C@H]1C[C@@H](NC(=O)N(C)c2ccc(C(F)F)c(F)c2)[C@@H]2CC[C@H]1N2c1nnn[nH]1 (single isomer, unassigned) [53C*]
- IC50: > 100 µM

Structure (SMILES): C[C@H]1C[C@H](NC(=O)N(C)c2ccc(C(F)F)c(F)c2)[C@@H]2CC[C@H]1N2c1nnn[nH]1 (single isomer, unassigned) [53D*]
- IC50: > 100 µM

Structure (SMILES): C[C@@H]1C[C@H](NC(=O)N(C)c2ccc(C3CC3)c(F)c2)[C@H]2CC[C@@H]1N2c1nnn[nH]1 (single isomer, unassigned) [54B*]
- IC50: > 100 µM

Structure (SMILES): C[C@H]1C[C@@H](NC(=O)N(C)c2ccc(C3CC3)c(F)c2)[C@@H]2CC[C@H]1N2c1nnn[nH]1 (single isomer, unassigned) [54C*]
- IC50: > 100 µM
